Entries after “also recorded” stand apart in the source; their conditions may differ.
What was measured:
[1] = system: three-dimensional skin model (Test Skin LSE-002 or 003; Toyobo) treated with SDS; assay: Skin roughness model: three-dimensional skin model defatted with SDS, cell viability by MTT (absorbance of formazan); type: cell-based; settings: for cell viability (absorbance of formazan): dissolved in olive oil, added on Test Skin treated with 1% SDS, left overnight, MTT kit
[2] = Dispersion stability test in water (absorbance at 650 nm); type: physicochemical; settings: FIG. 6; for change in turbidity of the water suspension: after 6 hours
Description: MEL-B or MEL-C at a concentration of 10 mg/mL was added to water, stirred and suspended. Its absorbance at 650 nm was measured.

Substance | cell viability (absorbance of formazan) [1] | dispersion stability ([2]; 10 mg/mL in water, stirred and suspended, absorbance at 650 nm) | change in turbidity of the water suspension [2] | skin roughness improvement compared with MEL-A ([1]; FIG. 4 legend, three-dimensional skin model treated with SDS, viability)
mannosylerythritol lipid C [MEL-C] | increased in a MEL-C-concentration-dependent manner | particularly excellent in dispersion stability; also recorded: more excellent than MEL-A in water dispersion stability | little observable change in turbidity | –
mannosylerythritol lipid B [MEL-B] | increased in a MEL-B-concentration-dependent manner | – | little observable change in turbidity | increased skin roughness improvement over MEL-A
mannosylerythritol lipid A [MEL-A] | increased in a MEL-A-concentration-dependent manner | – | – | –
